Results taken from patent US20240409542A1, “NOVEL COMPOUNDS” (Sitryx Therapeutics Limited, priority 2021, published 2024).
Converted amounts (≈) assume the structure as drawn. Marks after values point to notes of the source that are not given here.

How the values were obtained:
recombinant human PKM2 = recombinant human PKM2 (Homo sapiens (Human), UniProt P14618); assay: Human PKM2 activation assay (Kinase-Glo Plus luminescence); type: biochemical; settings: for EC50: activation of recombinant human PKM2, 4-parameter logistic fit, read-out: hPKM2 EC50; for Emax: read-out: hPKM2 Emax (%)
Chain of recombinant human PKM2 (P14618 whole entry): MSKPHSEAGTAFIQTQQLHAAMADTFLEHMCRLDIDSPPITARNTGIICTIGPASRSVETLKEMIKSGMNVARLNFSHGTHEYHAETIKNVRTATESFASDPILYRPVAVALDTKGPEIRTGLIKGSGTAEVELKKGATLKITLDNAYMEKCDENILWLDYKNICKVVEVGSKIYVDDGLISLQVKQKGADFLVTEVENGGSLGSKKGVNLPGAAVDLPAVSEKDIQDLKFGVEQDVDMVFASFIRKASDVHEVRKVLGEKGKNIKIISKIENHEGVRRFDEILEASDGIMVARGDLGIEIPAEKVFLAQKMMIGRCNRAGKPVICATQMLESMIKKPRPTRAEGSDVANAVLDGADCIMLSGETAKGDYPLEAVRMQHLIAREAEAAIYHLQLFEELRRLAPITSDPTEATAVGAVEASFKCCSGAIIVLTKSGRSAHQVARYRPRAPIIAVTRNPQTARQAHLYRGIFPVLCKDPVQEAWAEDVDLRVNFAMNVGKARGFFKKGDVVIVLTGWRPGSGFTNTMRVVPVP
Procedure: Compound activation of recombinant human PKM2 pyruvate kinase activity was determined by biochemical assay. N-terminal His-tagged hPKM2 was sourced from R&D Systems and its substrates phosphoenolpyruvate (PEP) and ADP from Sigma-Aldrich and 2BScientific Ltd, respectively. The Kinase-Glo® Plus luminescence assay was from Promega. All other reagents were from Sigma-Aldrich. Test Compounds were prepared as 10 mM DMSO stocks and dilution series prepared in DMSO for direct dilution into Assay Buffer comprising 50 mM imidazole, 50 mM KCl, 7 mM MgCl2, 0.01% Tween20, 0.05% BSA (pH 7.2).
Human PKM2 was diluted into Assay Buffer comprising 50 mM imidazole, 50 mM KCl, 7 mM MgCl2, 0.01% Tween20, 0.05% BSA (pH 7.2) to a final concentration of 5 pM. Enzyme-Assay Buffer mix was dispensed into a 384-well shallow-well white-walled plate (PerkinElmer) and Test Compounds added by acoustic dispense (Echo®, Labcyte Inc.).
After 60 minutes' incubation on an orbital shaker (300 rpm, 26° C.), enzyme activity was quantified by the luminescent detection of generated ATP. Kinase-Glo® Plus reagent was added to each well and the plates incubated for a further 15 minutes on an orbital shaker in the dark (300 rpm, 26° C.) before luminescence measurement on a plate reader (PHERAstar® FSX, BMG Labtech).
EC50 and Emax values were determined from 4-parameter logistic fits of compound concentration-response curves.

recombinant human PKLR = recombinant human PKLR (Homo sapiens (Human), UniProt P30613); assay: Human PKLR activation assay (Kinase-Glo Plus luminescence); settings: for Emax: read-out: hPKLR Emax (%)
Chain of recombinant human PKLR (P30613 whole entry): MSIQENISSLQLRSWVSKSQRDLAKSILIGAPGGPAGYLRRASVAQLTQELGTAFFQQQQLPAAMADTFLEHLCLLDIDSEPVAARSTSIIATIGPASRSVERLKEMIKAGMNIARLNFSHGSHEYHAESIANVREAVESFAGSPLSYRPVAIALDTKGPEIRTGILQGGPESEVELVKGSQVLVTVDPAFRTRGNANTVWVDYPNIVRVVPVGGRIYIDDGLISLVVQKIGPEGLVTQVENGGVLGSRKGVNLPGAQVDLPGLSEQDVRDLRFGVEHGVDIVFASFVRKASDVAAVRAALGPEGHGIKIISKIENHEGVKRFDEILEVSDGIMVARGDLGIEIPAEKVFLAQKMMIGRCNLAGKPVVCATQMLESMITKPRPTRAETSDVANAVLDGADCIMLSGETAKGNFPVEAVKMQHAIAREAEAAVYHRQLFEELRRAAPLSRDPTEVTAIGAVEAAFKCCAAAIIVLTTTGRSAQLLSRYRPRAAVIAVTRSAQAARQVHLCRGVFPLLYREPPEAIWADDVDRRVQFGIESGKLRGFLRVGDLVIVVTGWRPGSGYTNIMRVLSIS
Procedure: Compound activation of recombinant human PKLR pyruvate kinase activity was determined by biochemical assay. N-terminal His-tagged enzyme was sourced from R&D Systems and its substrates phosphoenolpyruvate (PEP) and ADP from Sigma-Aldrich and 2BScientific Ltd, respectively. The Kinase-Glo® Plus luminescence assay was from Promega. All other reagents were from Sigma-Aldrich. Test Compounds were prepared as 10 mM DMSO stocks and dilution series prepared in DMSO for direct dilution into Assay Buffer comprising 50 mM imidazole, 50 mM KCl, 7 mM MgCl2, 0.01% Tween20, 0.05% BSA (pH 7.2).
Human PKLR was diluted into Assay Buffer to a final concentration of 5 pM. Enzyme-Assay Buffer mix was dispensed into 384-well shallow-well white-walled plates and Test Compounds added by acoustic dispense (Echo®, Labcyte Inc).

A549 cells = assay: A549 proliferation assay in low-serine medium (CellTiter-Glo); type: cell-based; settings: Homo sapiens, 72 h, 3 days, low-serine medium (20 μM L-serine)
Procedure: The effect of compounds of Formula (I) on A549 cell proliferation in low-serine medium was assessed using a luminescence assay of viable cell number (CellTiter-Glo® 2.0, Promega) duplexed with a fluorescent cytotoxicity assessment (CellTox™ Green, Promega). Cell culture reagents were from ThermoFisher unless specified otherwise. Assay reagents were from Sigma-Aldrich unless specified otherwise. Test Compounds were prepared as 10 mM DMSO stocks and dilution series prepared in DMSO for direct dilution into culture medium.
Cells were passaged every 3-4 days at 80-90% confluence. The cell monolayer was washed twice with room-temperature Ca^2+/Mg-free PBS and 4 ml room-temperature trypsin-EDTA added to the flask. After 5 minutes' incubation (37° C., 5% CO2) to detach cells, trypsin was quenched with 13 ml warmed complete growth medium and the cells harvested and diluted to 2.4×10^4 cells/ml for dispensing into 384-well clear-bottom black-walled plates (600 cells/well).
Following overnight incubation, growth medium was aspirated from each well and the cells washed twice with Assay Medium comprising Basal Medium Eagle supplemented with 3% heat-inactivated dialysed FBS plus 2 mM L-glutamine plus 20 μM L-serine (Sigma-Aldrich). After aspiration of the final wash medium, Assay Medium containing Test Compound was added to each well. DMSO vehicle controls were included on each plate.
Cells were incubated for 3 days in a humidified incubator (37° C., 5% CO2) at which point CellTox™ Green and CellTiter-Glo® reagents were prepared according to the manufacturer's instructions. Triton-X was added to HIGH wells for cytotoxicity determination and the plate incubated for 30 minutes (20° C., ambient humidity and pCO2). CellTox™ Green reagent was added to each well and the plate covered, placed on an orbital shaker @450 rpm for 2 minutes, and incubated in the dark for 15 minutes (20° C., ambient humidity and pCO2). Endpoint fluorescence was measured using a plate reader (PHERAstar® FSX, BMG Labtech).
Following cytotoxicity determination, CellTiter-Glo® reagent was added to each well and the plate placed on an orbital shaker @450 rpm for 2 minutes to lyse cells. Plates were incubated in the dark for 15-30 minutes (20° C., ambient humidity and pCO2) prior to endpoint luminescence measurement (PHERAstar® FSX, BMG Labtech).
Proliferation was calculated by normalizing luminescence signals to LOW controls obtained from a parallel plate processed at the time of Test Compound challenge and HIGH (DMSO vehicle) wells from the compound plate. IC50 values were determined from a 4-parameter logistic fit of compound concentration-response curves.

[1] = Kinetic aqueous solubility; settings: PBS pH 7.4, 200 μM (2% DMSO), RT; for solubility kinetic at 1.5 h: phosphate buffered saline (PBS) pH 7.4, pH 7.4, aqueous buffer, kinetic from dmso stock, Kinetic solubility (Ksol), (μg/ml)
Procedure: Phosphate buffered saline (PBS) pH 7.4 was prepared using PBS tablets as per the manufacturer's instructions. Compounds and marker stocks are prepared at 10 mM in DMSO.
Compounds were incubated at 200 μM (2% DMSO) in Millipore—MSS LB PC 10 or Porvair—ref: 36004 plates in the presence of the prepared PBS pH 7.4 solution for 1.5 h, at RT, with gentle shaking. […] The samples were then analysed in a 96 well UV Star analysis plate on a plate reader from 220 nm to 500 nm at 10 nm increments.
The concentration of the samples was calculated against the standard curves.

| SMILES | EC50 (recombinant human PKM2) [nM] | Emax (recombinant human PKM2) [%] | EC50 (recombinant human PKLR) [nM] | Emax (recombinant human PKLR) [%] | IC50 (A549 cells) [nM] | Kinetic solubility (Ksol); (μg/ml) ([1]; 1.5 h) | solubility kinetic at 1.5 h [1] [µg/mL] | Kinetic solubility (Ksol); ([1]; 1.5 h) [µg/mL] |
| --- | --- | --- | --- | --- | --- | --- | --- | --- |
| Cn1c2c(c3cnn(Cc4ccc5c(c4)CCO5)c(=O)c31)CCN(S(C)(=O)=O)C2 [Example 1, 3-((2,3-dihydrobenzofuran-5-yl)methyl)-5-methyl-7-(methylsulfonyl)-3,5,6,7,8,9-hexahydro-4H-pyrido[4′,3′:4,5]pyrrolo[2,3-d]pyridazin-4-one] | 180 | 86.9 | 60 to 320 | 90 to 100 | 1.6 | 12.85* μg/ml | 13.9 (≈ 33.5 µM) | – |
| COc1ccc(Cn2ncc3c4c(n(C)c3c2=O)CN(S(C)(=O)=O)CC4)cn1 [Example 2, 3-((6-methoxypyridin-3-yl)methyl)-5-methyl-7-(methylsulfonyl)-3,5,6,7,8,9-hexahydro-4H-pyrido[4′,3′:4,5]pyrrolo[2,3-d]pyridazin-4-one] | 306 | 93.7 | 60 to 320 | 100 to 117 | 4.5 | – | 36.1 (≈ 89.5 µM) | 36.19 |
| CC(O)c1cccc(Cn2ncc3c4c(n(C)c3c2=O)CN(S(C)(=O)=O)CC4)c1 (stereo not shown) [Example 3, 3-(3-(1-hydroxyethyl)benzyl)-5-methyl-7-(methylsulfonyl)-3,5,6,7,8,9-hexahydro-4H-pyrido[4′,3′:4,5]pyrrolo[2,3-d]pyridazin-4-one] | 303 | 81.4 | 60 to 320 | 100 to 117 | 10.5 | 17.91* μg/ml | 19 (≈ 45.6 µM) | – |
| Cn1c2c(c3cnn(Cc4cc[nH]n4)c(=O)c31)CCN(S(C)(=O)=O)C2 [Example 4, 3-((1H-pyrazol-3-yl)methyl)-5-methyl-7-(methylsulfonyl)-3,5,6,7,8,9-hexahydro-4H-pyrido[4′,3′:4,5]pyrrolo[2,3-d]pyridazin-4-one] | 1140 | 89.8 | 60 to 320 | 100 to 117 | – | – | 42 (≈ 116 µM) | – |
| COc1cccc(Cn2ncc3c4c(n(C)c3c2=O)CN(S(C)(=O)=O)CC4)c1F [Example 5, 3-(2-fluoro-3-methoxybenzyl)-5-methyl-7-(methylsulfonyl)-3,5,6,7,8,9-hexahydro-4H-pyrido[4′,3′:4,5]pyrrolo[2,3-d]pyridazin-4-one] | 591 | 96.7 | 60 to 320 | < 90 | 13.3 | – | 5.13 (≈ 12.2 µM) | – |
| COc1cc(F)c(Cn2ncc3c4c(n(C)c3c2=O)CN(S(C)(=O)=O)CC4)c(F)c1 [Example 6, 3-(2,6-difluoro-4-methoxybenzyl)-5-methyl-7-(methylsulfonyl)-3,5,6,7,8,9-hexahydro-4H-pyrido[4′,3′:4,5]pyrrolo[2,3-d]pyridazin-4-one] | 317 | 85.3 | 43.5 to 60 | < 90 | 16.8 | 0.87* μg/ml | 0.64 (≈ 1.46 µM) | – |
| Cn1c2c(c3cnn(Cc4cccc(N)c4)c(=O)c31)CCN(S(C)(=O)=O)C2 [Example 7, 3-(3-aminobenzyl)-5-methyl-7-(methylsulfonyl)-3,5,6,7,8,9-hexahydro-4H-pyrido[4′,3′:4,5]pyrrolo[2,3-d]pyridazin-4-one] | 346 | 107 | 60 to 320 | 100 to 117 | 0.9 | – | 72.2 (≈ 186 µM) | – |
| CC(=O)N1CCc2c(n(C)c3c(=O)n(Cc4cccc(N)c4)ncc23)C1 [Example 8, 7-acetyl-3-(3-aminobenzyl)-5-methyl-3,5,6,7,8,9-hexahydro-4H-pyrido [4′,3′:4,5]pyrrolo[2,3-d]pyridazin-4-one] | 1740 | 83.1 | > 320 | < 90 | 25.4 | – | > 70.3 | – |
| Cn1c2c(c3cnn(Cc4cccc(N)c4)c(=O)c31)CCN(S(=O)(=O)C1CC1)C2 [Example 9, 3-(3-aminobenzyl)-7-(cyclopropylsulfonyl)-5-methyl-3,5,6,7,8,9-hexahydro-4H-pyrido[4′,3′:4,5]pyrrolo[2,3-d]pyridazin-4-one] | 1770 | 47.3 | > 320 | < 90 | 25.8 | – | 43.1 (≈ 104 µM) | – |
| Cn1c2cc([S+](C)[O-])sc2c2cnn(Cc3cccc(N)c3)c(=O)c21 (stereo not shown) [TEPP-46, reference compound] | – | 113 | – | – | – | – | 0.15 (≈ 0.403 µM) | – |

More lines, now with the values ahead:

| EC50 (recombinant human PKM2) [nM] | Emax (recombinant human PKM2) [%] | EC50 (recombinant human PKLR) [nM] | Emax (recombinant human PKLR) [%] | IC50 (A549 cells) [nM] | Kinetic solubility (Ksol); (μg/ml) ([1]; 1.5 h) | solubility kinetic at 1.5 h [1] [µg/mL] | Kinetic solubility (Ksol); ([1]; 1.5 h) [µg/mL] | SMILES |
| --- | --- | --- | --- | --- | --- | --- | --- | --- |
| 4680 | 72 | > 320 | 90 to 100 | 117 | – | 17.1 (≈ 36.4 µM) | – | Cc1ncc(S(=O)(=O)N2CCc3c(n(C)c4c(=O)n(Cc5cccc(N)c5)ncc34)C2)s1 [Example 10, 3-(3-aminobenzyl)-5-methyl-7-((2-methylthiazol-5-yl)sulfonyl)-3,5,6,7,8,9-hexahydro-4H-pyrido[4′,3′:4,5]pyrrolo[2,3-d]pyridazin-4-one] |
| 846 | 88.4 | 60 to 320 | < 90 | 14 | – | 9.9 (≈ 22 µM) | – | Cn1c2c(c3cnn(Cc4cccc(N)c4)c(=O)c31)CCN(S(=O)(=O)c1ccccc1)C2 [Example 11, 3-(3-aminobenzyl)-5-methyl-7-(phenylsulfonyl)-3,5,6,7,8,9-hexahydro-4H-pyrido[4′,3′:4,5]pyrrolo[2,3-d]pyridazin-4-one] |
| 440 | 82.6 | – | – | – | – | 1.8 (≈ 4.19 µM) | – | Cn1c2c(c3cnn(Cc4csc5ccncc45)c(=O)c31)CCN(S(C)(=O)=O)C2 [Example 34, 5-methyl-7-(methylsulfonyl)-3-(thieno[3,2-c]pyridin-3-ylmethyl)-3,5,6,7,8,9-hexahydro-4H-pyrido[4′,3′:4,5]pyrrolo[2,3-d]pyridazin-4-one] |
| 71 | 100 | 43.5 to 60 | 90 to 100 | – | – | > 82.5 | – | Cn1c2c(c3cnn(Cc4c[nH]c5cnccc45)c(=O)c31)CCN(S(C)(=O)=O)C2 [Example 36, 3-((1H-pyrrolo[2,3-c]pyridin-3-yl)methyl)-5-methyl-7-(methylsulfonyl)-3,5,6,7,8,9-hexahydro-4H-pyrido[4′,3′:4,5]pyrrolo[2,3-d]pyridazin-4-one] |
| 207 | 106 | – | – | – | – | 59.3 (≈ 144 µM) | – | Cn1c2c(c3cnn(Cc4c[nH]c5ncccc45)c(=O)c31)CCN(S(C)(=O)=O)C2 [Example 37, 3-((1H-pyrrolo[2,3-b]pyridin-3-yl)methyl)-5-methyl-7-(methylsulfonyl)-3,5,6,7,8,9-hexahydro-4H-pyrido[4′,3′:4,5]pyrrolo[2,3-d]pyridazin-4-one] |
| 217 | 92.7 | – | – | – | – | 1.09 (≈ 2.54 µM) | – | Cn1c2c(c3cnn(Cc4c[nH]c5cc(F)ccc45)c(=O)c31)CCN(S(C)(=O)=O)C2 [Example 39, 3-((6-fluoro-1H-indol-3-yl)methyl)-5-methyl-7-(methylsulfonyl)-6,7,8,9-tetrahydro-3H-pyrido[4′,3′:4,5]pyrrolo[2,3-d]pyridazin-4(5H)-one] |
